pIC50: −log10 of the molar value. Counter-ions that a name gives are not always drawn. Like-named read-outs stand apart in the source and are kept apart here.
Assays:
[1] = test system: human small lung cancer cell line H2171; test: Cell Viability Assay (ATPlite); assay type: cell-based; conditions: read-out: H2171 Activity
Summary of the method: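 H2171 cells were plated at 20,000 cells/mL and dosed immediately by pin transfer with a 10-point dose series in DMSO. After three days at 37° C, ATPlite luminescence served as the viability readout.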

c-Myc/Max/Ebox DNA = biological target: T1, c-Myc/Max/Ebox DNA (Homo sapiens, UniProt P01106); test: c-Myc/Max/Ebox DNA AlphaScreen Assay; assay type: binding; conditions: calculated IC50 class
T1 construct: his6 (cleaved yes)
Summary of the method: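 Compounds were preincubated with free c-Myc (20 nM), biotinylated single-Ebox DNA (10 nM) and Ni acceptor beads before his6-Max (5 nM) and streptavidin donor beads were added. Buffer was 50 mM HEPES pH 8.0, 150 mM NaCl, BSA, Tween20, glycogen and DTT, with DMSO ≤2%. After 2 h incubation, AlphaScreen signal was read at 680 nm excitation and 520–620 nm emission.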

[2] = Homo sapiens, NCI-H2171, 72 h, Table 2, compounds of FIG. 1, H2171 cells, three days, ATPlite, calculated IC50 class
[3] = Homo sapiens, NCI-H2171, 72 h, Table 3, compounds of FIG. 2, H2171 cells, three days, ATPlite, calculated IC50 class
[4] = Table 2, compounds of FIG. 1, H2171 cells, three days, ATPlite, calculated IC50 class

T1 sequence (P01106 whole entry): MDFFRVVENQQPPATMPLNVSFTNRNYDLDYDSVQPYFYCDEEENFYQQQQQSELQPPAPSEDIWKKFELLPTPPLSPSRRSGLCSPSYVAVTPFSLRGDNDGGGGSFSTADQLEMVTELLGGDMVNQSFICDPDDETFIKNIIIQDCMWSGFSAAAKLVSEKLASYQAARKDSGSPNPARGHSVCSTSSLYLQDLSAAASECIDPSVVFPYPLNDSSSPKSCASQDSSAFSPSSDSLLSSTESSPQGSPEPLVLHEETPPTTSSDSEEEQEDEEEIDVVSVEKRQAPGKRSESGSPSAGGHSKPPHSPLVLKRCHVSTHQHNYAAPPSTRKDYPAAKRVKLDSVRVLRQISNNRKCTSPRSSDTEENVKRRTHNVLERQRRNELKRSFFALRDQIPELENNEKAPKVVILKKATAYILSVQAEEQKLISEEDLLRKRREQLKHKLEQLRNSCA

Compound | pIC50 [1, 2] | pIC50 (c-Myc/Max/Ebox DNA; Table 2, compounds of FIG. 1) | other results
CC(C)NCCC(=O)Nc1sc2c(c1-c1nc3c(S(C)(=O)=O)cccc3s1)CCNC2 [compound 553] | > 6.52 | > 6.52 | –
CC(=O)Nc1sc2c(c1-c1nc3cc(F)ccc3s1)CCNC2 [Compound 203, N-(3-(5-fluorobenzo[d]thiazol-2-yl)-4,5,6,7-tetrahydrothieno[2,3-c]pyridin-2-yl)acetamide] | – | – | pIC50 [1, 3]: 5.00 to 6.00; pIC50 (c-Myc/Max/Ebox DNA; Table 3, compounds of FIG. 2): 5.00 to 6.00
CC(=O)Nc1sc2c(c1-c1nc3cc4c(cc3s1)OCO4)CCNC2 [Compound 237, N-(3-([1,3]Dioxolo[4′,5′:4,5]benzo[1,2-d]thiazol-6-yl)-4,5,6,7-tetrahydrothieno[2,3-c]pyridin-2-yl)acetamide] | – | – | pIC50 [1, 3]: 6.00 to 6.52; pIC50 (c-Myc/Max/Ebox DNA; Table 3, compounds of FIG. 2): 5.00 to 6.00
COCCNCCC(=O)Nc1sc2c(c1-c1nc3cc(-c4ccncc4)ccc3s1)C[C@H](C)N[C@@H]2C [Compound 532, N-((5S,7R)-5,7-dimethyl-3-(5-(pyridin-4-yl)benzo[d]thiazol-2-yl)-4,5,6,7-tetrahydrothieno[2,3-c]pyridin-2-yl)-3-((2-methoxyethyl)amino)propanamide] | 6.00 to 6.52 | < 5.00 | –
CC(C)NCCC(=O)Nc1sc2c(c1-c1nc3cc(C(=O)Nc4ccccc4)ccc3s1)CCNC2 [Compound 505, 2-(2-(3-(Isopropylamino)propanamido)-4,5,6,7-tetrahydrothieno[2,3-c]pyridin-3-yl)-N-phenylbenzo[d]thiazole-5-carboxamide] | > 6.52 | 5.00 to 6.00 | –
COCCNCCC(=O)Nc1sc2c(c1-c1nc3c(C#N)cccc3s1)CCNC2 [compound 568] | > 6.52 | > 6.52 | –
CCN1CCc2c(sc(NC(C)=O)c2-c2nc3ccccc3s2)C1 [Compound 201, N-(3-(benzo[d]thiazol-2-yl)-6-ethyl-4,5,6,7-tetrahydrothieno[2,3-c]pyridin-2-yl)acetamide] | – | – | pIC50 ([1]; Homo sapiens, NCI-H2171, 72 h): 5.00 to 6.00; pIC50 (c-Myc/Max/Ebox DNA; Table 3, compounds of FIG. 2): 5.00 to 6.00
COCCNCCC(=O)Nc1sc2c(c1-c1nc3cc(-c4ccn[nH]4)ccc3s1)CCNC2 [compound 406] | > 6.52 | > 6.52 | –
COCCNCCC(=O)Nc1sc2c(c1-c1nc3cc(C)ccc3s1)CCNC2 [Compound 314, 3-((2-Methoxyethyl)amino)-N-(3-(5-methylbenzo[d]thiazol-2-yl)-4,5,6,7-tetrahydrothieno[2,3-c]pyridin-2-yl)propanamide] | > 6.52 | > 6.52 | –
CCC(C)N(C)CCC(=O)Nc1sc2c(c1-c1nc3ccccc3s1)CCN(C(C)C)C2 (centres unmarked) [Compound 122] | – | > 6.52 | pIC50 [1, 4]: 6.00 to 6.52
O=C(CCNCCc1cccnc1)Nc1sc2c(c1-c1nc3ccccc3s1)CCNC2 [Compound 136, N-(3-(benzo[d]thiazol-2-yl)-4,5,6,7-tetrahydrothieno[2,3-c]pyridin-2-yl)-3-((2-(pyridin-3-yl)ethyl)amino) propanamide] | 6.00 to 6.52 | 5.00 to 6.00 | –
COCCNCCC(=O)Nc1sc2c(c1-c1nc3ccc(F)cc3s1)CCNC2 [Compound 318, N-(3-(6-Fluorobenzo[d]thiazol-2-yl)-4,5,6,7-tetrahydrothieno[2,3-c]pyridin-2-yl)-3-((2-methoxyethyl)amino)propanamide] | > 6.52 | 6.00 to 6.52 | –
COCCNCCC(=O)Nc1sc2c(c1-c1nc3c(C(F)(F)F)cccc3s1)CCNC2 [compound 611] | > 6.52 | > 6.52 | –
COCCNCCC(=O)Nc1sc2c(c1-c1nc3cc(-c4cccnc4)ccc3s1)CC(C)NC2C (centres unmarked) [Compound 533, N-(5,7-Dimethyl-3-(5-(pyridin-3-yl)benzo[d]thiazol-2-yl)-4,5,6,7-tetrahydrothieno[2,3-c]pyridin-2-yl)-3-((2-methoxyethyl)amino)propanamide] | 6.00 to 6.52 | 5.00 to 6.00 | –
CCNCCC(=O)Nc1sc2c(c1-c1nc3ccccc3s1)CCN(C(C)C)C2 [Compound 540, N-(3-(Benzo[d]thiazol-2-yl)-6-isopropyl-4,5,6,7-tetrahydrothieno[2,3-c]pyridin-2-yl)-3-(ethylamino)propanamide] | – | 6.00 to 6.52 | pIC50 ([1]; Homo sapiens, NCI-H2171, 72 h): > 6.52
CC(C)NCCC(=O)Nc1sc2c(c1-c1nc3ccccc3s1)CCN(C(C)C)C2 [Compound 132, N-(3-(benzo[d]thiazol-2-yl)-6-isopropyl-4,5,6,7-tetrahydrothieno[2,3-c]pyridin-2-yl)-3-(isopropylamino)propanamide] | 6.00 to 6.52 | 6.00 to 6.52 | –

Compound | pIC50 [1, 2] | pIC50 (c-Myc/Max/Ebox DNA; Table 2, compounds of FIG. 1) | other results
CC[C@H](C)NCCC(=O)Nc1sc2c(c1-c1nc3cc(C(F)(F)F)ccc3s1)CC(C)NC2C (single isomer, unassigned) [Compound 586] | – | < 5.00 | pIC50 [1, 4]: > 6.52
COCCNCCC(=O)Nc1sc2c(c1-c1nc3ccccc3s1)CC(C)NC2C (centres unmarked) [Compound 507, N-(3-(Benzo[d]thiazol-2-yl)-5,7-dimethyl-4,5,6,7-tetrahydrothieno[2,3-c]pyridin-2-yl)-3-((2-methoxyethyl)amino)propanamide] | – | 6.00 to 6.52 | pIC50 [1, 4]: > 6.52
COCCNCCC(=O)Nc1sc2c(c1-c1nc3cc(-c4ccc(C#N)nc4)ccc3s1)CCNC2 [compound 405] | > 6.52 | > 6.52 | –
CCC1Cc2c(sc(NC(=O)CCNCCOC)c2-c2nc3ccccc3s2)C(CC)N1 (single isomer, unassigned) [Compound 536, N-(3-(Benzo[d]thiazol-2-yl)-5,7-diethyl-4,5,6,7-tetrahydrothieno[2,3-c]pyridin-2-yl)-3-((2-methoxyethyl)amino)propanamide] | > 6.52 | 6.00 to 6.52 | –
CCOC(=O)CCOCCOCCOCCOCCOCCOCCNCCC(=O)Nc1sc2c(c1-c1nc3ccccc3s1)CCNC2 [Compound 622, Ethyl 1-((3-(benzo[d]thiazol-2-yl)-4,5,6,7-tetrahydrothieno[2,3-c]pyridin-2-yl)amino)-1-oxo-7,10,13,16,19,22-hexaoxa-4-azapentacosan-25-oate] | > 6.52 | > 6.52 | –
Cc1ncsc1-c1ccc(CNC(=O)[C@@H]2C[C@@H](O)CN2C(=O)[C@@H](NC(=O)CCOCCOCCOCCOCCOCCOCCNCCC(=O)Nc2sc3c(c2-c2nc4ccccc4s2)CCNC3)C(C)(C)C)cc1 [Compound 591, N1-(3-(benzo[d]thiazol-2-yl)-4,5,6,7-tetrahydrothieno[2,3-c]pyridin-2-yl)-N25-((S)-1-((2S,4R)-4-hydroxy-2-((4-(4-methylthiazol-5-yl)benzyl)carbamoyl)pyrrolidin-1-yl)-3,3-dimethyl-1-oxobutan-2-yl)-7,10,13,16,19,22-hexaoxa-4-azapentacosanediamide] | > 6.52 | < 5.00 | –
CCC(C)NCCC(=O)Nc1sc2c(c1-c1nc3cc(C(F)(F)F)ccc3s1)CCN(C(C)C)C2 (centres unmarked) [Compound 142, 3-(sec-butylamino)-N-(6-isopropyl-3-(5-(trifluromethyl)benzo[d]thiazol-2-yl)-4,5,6,7-tetrahydrothieno[2,3-c]pyridin-2-yl)propanamide] | > 6.52 | > 6.52 | –
CC(C)N1CCc2c(sc(NC(=O)CCNC(C)(C)C)c2-c2nc3ccccc3s2)C1 [Compound 127, N-(3-(benzo[d]thiazol-2-yl)-6-isopropyl-4,5,6,7-tetrahydrothieno[2,3-c]pyridin-2-yl)-3-(tert-butylamino)propanamide] | 6.00 to 6.52 | 6.00 to 6.52 | –
CC(=O)Nc1sc2c(c1-c1nc3ccccc3s1)CCC(N(C)C)C2 (centres unmarked) [Compound 223, N-(3-(benzo[d]thiazol-2-yl)-6-(dimethylamino)-4,5,6,7-tetrahydrobenzo[b]thiophen-2-yl)acetamide] | – | – | pIC50 [1, 3]: < 5.00; pIC50 (c-Myc/Max/Ebox DNA; Table 3, compounds of FIG. 2): 5.00 to 6.00
CC[C@H](C)NCCC(=O)Nc1sc2c(c1-c1nc3ccccc3s1)CCN(C(C)C)C2 [Compound 135, (S)—N-(3-(benzo[d]thiazol-2-yl)-6-isopropyl-4,5,6,7-tetrahydrothieno[2,3-c]pyridin-2-yl)-3-(sec-butylamino)propanamide] | > 6.52 | > 6.52 | –
CC(C)N1CCc2c(sc(NC(=O)CCNCc3cnn(C)c3)c2-c2nc3ccccc3s2)C1 [Compound 100, N-(3-(benzo[d]thiazol-2-yl)-6-isopropyl-4,5,6,7-tetrahydrothieno[2,3-c]pyridin-2-yl)-3-(((1-methyl-1H-pyrazol-4-yl)methyl)amino)propanamide] | > 6.52 | 6.00 to 6.52 | –
COCCNCCC(=O)Nc1sc2c(c1-c1nc3cc(F)ccc3s1)C[C@H](C)NC2 [Compound 571] | > 6.52 | > 6.52 | –
COCCNCCC(=O)Nc1sc2c(c1-c1nc3cc(C(F)(F)F)ccc3s1)CC(C)NC2 (single isomer, unassigned) [Compound 551, 3-((2-Methoxyethyl)amino)-N-(5-methyl-3-(5-(trifluoromethyl)benzo[d]thiazol-2-yl)-4,5,6,7-tetrahydrothieno[2,3-c]pyridin-2-yl)propanamide] | – | > 6.52 | pIC50 [1, 4]: > 6.52
CC(C)NCCC(=O)Nc1sc2c(c1-c1nc3cc(-c4ccncc4)ccc3s1)CCNC2 [Compound 160, 3-(Isopropylamino)-N-(3-(5-(pyridin-4-yl)benzo[d]thiazol-2-yl)-4,5,6,7-tetrahydrothieno[2,3-c]pyridin-2-yl)propanamide dihydrochloride] | 6.00 to 6.52 | 6.00 to 6.52 | –
CC[C@H](C)NCCC(=O)Nc1sc2c(c1-c1nc3ccccc3s1)CCNC2 [Compound 154, (S)—N-(3-(benzo[d]thiazol-2-yl)-4,5,6,7-tetrahydrothieno[2,3-c]pyridin-2-yl)-3-(sec-butylamino) propanamide] | > 6.52 | 6.00 to 6.52 | –
